# According to US11319324B2, “Pyrazolo-pyrrolo-pyrimidine-dione derivatives as P2X3 inhibitors” (Bayer Aktiengesellschaft, priority 2017, dated 2022):
# Columns and labels:
# [1] = clinical trials; affecting taste sensation via the tongue; cited from earlier work
# [2] = target: T1, human P2X3 receptor (Homo sapiens, UniProt P56373); assay: Intracellular calcium measurement, antagonist activity at human P2X3 receptors (hP2X3 1321N1), Fluo8; assay type: cell-based; set-up: expressed in transfected cells; host or cells: human astrocytoma 1321N1 (1312N1 [sic]); conditions: column 3); 1321N1 cells, human P2X3, Fluo8, agonist ATP at EC50
# T1 sequence (P56373 1-397): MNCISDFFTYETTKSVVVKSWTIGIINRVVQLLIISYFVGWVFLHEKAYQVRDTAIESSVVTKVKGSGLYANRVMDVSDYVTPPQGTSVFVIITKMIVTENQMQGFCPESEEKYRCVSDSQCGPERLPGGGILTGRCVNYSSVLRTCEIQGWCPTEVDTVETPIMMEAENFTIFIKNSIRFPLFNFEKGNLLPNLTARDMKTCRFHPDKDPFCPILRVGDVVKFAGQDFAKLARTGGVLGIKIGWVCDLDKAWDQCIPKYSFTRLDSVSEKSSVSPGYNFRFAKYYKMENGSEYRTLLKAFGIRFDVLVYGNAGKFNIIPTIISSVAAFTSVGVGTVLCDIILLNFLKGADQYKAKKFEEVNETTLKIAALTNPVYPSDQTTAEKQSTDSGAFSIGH
# Procedure, shortened: (§1)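 Inhibition of ATP-triggered Ca2+ transients is measured in 1321N1 cells expressing P2X3 homotrimers or P2X2/3 heterotrimers.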
# [3] = target: T2, human P2X2/3 receptors (Homo sapiens, UniProt P56373+Q9UBL9); assay: Intracellular calcium measurement, antagonist activity at human P2X2/3 receptors (hP2X23 1321N1), Fluo8; assay type: cell-based; conditions: for IC50: column 4); 1321N1 cells, human P2X2/3, Fluo8, agonist ATP at EC50; read-out: 4) hP2X2/3 IC50 [nM] (1321N1); for hP2X23/hP2X3* Selectivity (1321N1): ratio of column 4) hP2X2/3 to column 3) hP2X3, 1321N1
# T2 construct: expressed in transfected cells; host or cells: human astrocytoma 1321N1 (1312N1 [sic])
# T2 sequence (P56373 1-397): T1 sequence (P56373 1-397)
# T2 sequence (Q9UBL9 1-471): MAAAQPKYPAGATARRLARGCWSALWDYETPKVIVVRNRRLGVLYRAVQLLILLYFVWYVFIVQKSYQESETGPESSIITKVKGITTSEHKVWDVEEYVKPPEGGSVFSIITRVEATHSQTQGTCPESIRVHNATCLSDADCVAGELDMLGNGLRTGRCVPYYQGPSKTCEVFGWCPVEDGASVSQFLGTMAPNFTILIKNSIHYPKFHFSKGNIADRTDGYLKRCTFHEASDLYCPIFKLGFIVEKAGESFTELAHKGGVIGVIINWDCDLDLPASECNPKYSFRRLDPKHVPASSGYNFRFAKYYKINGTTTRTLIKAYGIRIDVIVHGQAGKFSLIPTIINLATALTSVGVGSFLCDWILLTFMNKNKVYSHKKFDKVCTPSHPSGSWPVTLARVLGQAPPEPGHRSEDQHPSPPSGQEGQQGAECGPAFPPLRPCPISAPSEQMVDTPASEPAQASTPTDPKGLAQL
# Procedure, shortened: as §1
# [4] = target: T1, human P2X3 receptor; assay: Intracellular calcium measurement to assess antagonist activity at human P2X3 receptors (hP2X3 FLIPR); assay type: cell-based; set-up: expressed in transfected cells; host or cells: human astrocytoma 1321N1 (1312N1 [sic]); conditions: head prints (1321N1); read-out: 1) hP2X3 IC50 [nM] (1321N1)
# Description: 1) Intracellular Calcium Measurement to Assess Antagonist Activity at Human P2X3 Receptors (hP2X3 FLIPR)
# A fluorescent imaging plate reader (FLEX/FLIPR station; Molecular Devices) was used to monitor intracellular calcium levels using the calcium-chelating dye Fluo-4 (Molecular Probes). The excitation and emission wavelengths used to monitor fluorescence were 470-495 nm and 515-575 nm, respectively. The human astrocytoma […] cells expressing purinergic receptors P2X3 (human) were plated at a density of 15,000 cells/well in collagen—coated 384-well plates approximately 20 hours before beginning the assay. […] The dye supernatant was removed and replaced with 45 μl probenecid buffer (Hank's balanced salt solution, 20 mM HEPES, 0.5 mM CaCl2, 0.5 mM MgCl2, 0.1% BSA, 5 mM probenecid, 10 mM D-glucose monohydrate, pH=7.4). The test compounds were added in a volume of 5 μl and allowed to incubate for 30 min at 37° C. The final assay DMSO concentration is 1%. […] The fluorescence was measured for an interval of 90 sec at 2 sec intervals and analyzed based on the increase in peak relative fluorescence units (RFU) compared to the basal fluorescence. Peak fluorescence was used to determine the response to agonist obtained at each concentration of test compound by the following equation: Response=100*(RFU(test compound)−RFU(control))/(RFU(DMSO)−RFU(control))
# The Examples were tested in triplicates per plate and mean values were plotted in Excel XLFit to determine IC50 values at the human P2X3 and human P2X2/3 receptors, percentage of maximal inhibition and the Hill coefficients.
# [5] = target: T1, human P2X3 receptor; assay: Intracellular calcium measurement to assess antagonist activity at human P2X3 receptors (hP2X3 CHO), photina luminescence; assay type: cell-based; set-up: expressed in transfected cells; host or cells: Chinese hamster ovary (CHO) cells; conditions: column 2), CHO cells, agonist α,β-methylene-ATP at EC50
# Procedure, shortened: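 CHO cells stably expressing human P2X3 and mitochondrial photina, plated the day before at 30 °C, then loaded 3 h at 37 °C in 2 mM Ca-tyrode buffer with 5 μg/ml coelenterazine. Agonist-evoked calcium luminescence read immediately; inhibition seen as signal decrease.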
SMILES,taste disturbances in treated subjects [1],IC50 [2],IC50 [3],hP2X23/hP2X3* Selectivity (1321N1) [3],IC50 [4],IC50 [5]
COc1cc(C(C)C)c(Oc2cnc(N)nc2N)cc1S(N)(=O)=O [AF-219],leads to taste disturbances,–,–,–,–,–
CCc1cc2n(CC(=O)Nc3ccc(F)cn3)c3c(c(=O)n2n1)CN(C(C)C)C3=O [Example 24],–,76 nM,10000 nM,132,35 nM,60 nM
CC[C@H](C)N1Cc2c(n(CC(=O)Nc3ccc(C)cn3)c3cc(C(F)(F)F)nn3c2=O)C1=O [Example 21],–,233 nM,12400 nM,53,164 nM,180 nM
Cc1ccc(NC(=O)Cn2c3c(c(=O)n4nc(C(C)(C)C)cc24)CN([C@@H](C)C(C)C)C3=O)nc1 [Example 11],–,657 nM,> 20600 nM,>31,376 nM,750 nM
CC[C@@H](C)N1Cc2c(n(CC(=O)Nc3ccc(F)cn3)c3cc(C(F)(F)F)nn3c2=O)C1=O [Example 14],–,59 nM,11500 nM,194,30 nM,60 nM
COC[C@@H](C)N1Cc2c(n(CC(=O)Nc3ccc(F)cn3)c3cc(C(C)C)nn3c2=O)C1=O [Example 44],–,34 nM,8200 nM,241,16 nM,39 nM
CC(C)c1cc2n(CC(=O)Nc3ccc(F)cn3)c3c(c(=O)n2n1)CN(CC(C)(C)O)C3=O [Example 51],–,253 nM,11500 nM,46,311 nM,160 nM
COC[C@@H](C)N1Cc2c(n(CC(=O)Nc3ccc(F)cn3)c3cc(C(C)(C)C)nn3c2=O)C1=O [Example 43],–,31 nM,6500 nM,213,19 nM,20 nM
CC(C)c1cc2n(CC(=O)Nc3ccc(Cl)cn3)c3c(c(=O)n2n1)CN(C(C)C)C3=O [Example 8],–,48 nM,3650 nM,76,50 nM,51 nM
Cc1cc2n(CC(=O)Nc3ccc(F)cn3)c3c(c(=O)n2n1)CN([C@H](C)C1CC1)C3=O [Example 55],–,117 nM,10800 nM,93,104 nM,195 nM
COC[C@@H](C)N1Cc2c(n(CC(=O)Nc3ccc(F)cn3)c3cc(C)nn3c2=O)C1=O [Example 52],–,71 nM,> 23000 nM,>324,52 nM,43 nM
CC(C)(C)c1cc2n(CC(=O)Nc3ccc(F)cn3)c3c(c(=O)n2n1)CN(CC1CC1)C3=O [Example 13],–,27 nM,5650 nM,212,21 nM,51 nM
CC(C)(C)c1cc2n(CC(=O)Nc3ccc(Cl)cn3)c3c(c(=O)n2n1)CN(C1CCC1)C3=O [Example 18],–,124 nM,2500 nM,20,69 nM,106 nM
CC(C)(C)c1cc2n(CC(=O)Nc3ccc(F)cn3)c3c(c(=O)n2n1)CN(C1CCCC1)C3=O [Example 26],–,46 nM,2450 nM,54,22 nM,20 nM
COC[C@H](C)N1Cc2c(n(CC(=O)Nc3ccc(F)cn3)c3cc(C(F)(F)F)nn3c2=O)C1=O [Example 37],–,200 nM,> 32000 nM,>160,82 nM,135 nM
CCc1cc2n(CC(=O)Nc3ccc(F)cn3)c3c(c(=O)n2n1)CN([C@@H](C)COC)C3=O [Example 46],–,36 nM,14000 nM,385,28 nM,59 nM
CC(C)(C)c1cc2n(CC(=O)Nc3ccc(F)cn3)c3c(c(=O)n2n1)CN(CC(=O)N1CCCC1)C3=O [Example 38],–,627 nM,> 21000 nM,>34,161 nM,175 nM
Cc1cc2n(CC(=O)Nc3ccc(F)cn3)c3c(c(=O)n2n1)CN(C(C)C)C3=O [Example 23],–,153 nM,> 20600 nM,>11134,80 nM,64 nM
"COCC(C)N1Cc2c(n(CC(=O)Nc3ccc(F)cn3)c3cc(C(=O)N(C)C)nn3c2=O)C1=O (racemic) [Example 140, 4-{2-[(5-fluoropyridin-2-yl)amino]-2-oxoethyl}-6-[(±)-1-methoxypropan-2-yl]-N,N-dimethyl-5,8-dioxo-5,6,7,8-tetrahydro-4H-pyrazolo[1,5-a]pyrrolo[3,4-d]pyrimidine-2-carboxamide]",–,115 nM,> 20900 nM,>183,57 nM,55 nM
CC(C)(C)c1cc2n(CC(=O)Nc3ccc(F)cn3)c3c(c(=O)n2n1)CN(C1CCOCC1)C3=O [Example 33],–,297 nM,> 21500 nM,>72,276 nM,165 nM
CC(C)(O)CN1Cc2c(n(CC(=O)Nc3ccc(F)cn3)c3cc(C(C)(C)C)nn3c2=O)C1=O [Example 32],–,170 nM,12000 nM,71,139 nM,121 nM
CC(C)c1cc2n(CC(=O)Nc3ccc(F)cn3)c3c(c(=O)n2n1)CN(C(C)C)C3=O [Example 7],–,48 nM,8000 nM,167,28 nM,71 nM
